Values joined by “and” are separate entries in the source; they are usually repeats but may differ in a detail not shown here. Identical values can stand only once.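 Exposure lasted 48 hours, with cells grown in 96-well plates and compounds tested at five concentrations. The concentration for 50% growth inhibition is given as GI50.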 Active and inactive are the calls of the source. Rule as the data show it: active = GI50 up to about 1.1 µM and inactive = higher.
Experiments:
Assay in all cases: NCI-60 cell line screen, 48 h
MCF7 = system: MCF7
SK-OV-3 = system: SK-OV-3
HCC 2998 = system: HCC 2998
TK-10 = system: TK-10
NCI-H23 = system: NCI-H23
HL-60 = system: HL-60
BT-549 = system: BT-549
SNB-75 = system: SNB-75
COLO 205 = system: COLO 205
CCRF-CEM = system: CCRF-CEM
HT-29 = system: HT-29
OVCAR-8 = system: OVCAR-8
T47D = system: T47D
M14 = system: M14
SK-MEL-2 = system: SK-MEL-2
PC-3 = system: PC-3
UACC-62 = system: UACC-62
NCI-H522 = system: NCI-H522
MDA-MB-231 = system: MDA-MB-231
OVCAR-5 = system: OVCAR-5
UO-31 = system: UO-31
HOP-62 = system: HOP-62
HCT-15 = system: HCT-15
CAKI-1 = system: CAKI-1
U-251 = system: U-251
OVCAR-4 = system: OVCAR-4
NCI-H460 = system: NCI-H460
SF-295 = system: SF-295
K562 = system: K562
SK-MEL-5 = system: SK-MEL-5
Hs-578T = system: Hs-578T
SK-MEL-28 = system: SK-MEL-28
NCI/ADR-RES = system: NCI/ADR-RES
SN12C = system: SN12C
SW-620 = system: SW-620
A498 = system: A498
MOLT-4 = system: MOLT-4
ACHN = system: ACHN
OVCAR-3 = system: OVCAR-3
EKVX = system: EKVX
Malme-3M = system: Malme-3M
KM12 = system: KM12
NCI-H226 = system: NCI-H226
SF-268 = system: SF-268
UACC-257 = system: UACC-257
MDA-N = system: MDA-N
SR = system: SR
DU-145 = system: DU-145
IGROV-1 = system: IGROV-1
HCT-116 = system: HCT-116
SNB-19 = system: SNB-19
A549 = system: A549
SF-539 = system: SF-539
MDA-MB-435 = system: MDA-MB-435
LOX IMVI = system: LOX IMVI
786-0 = system: 786-0
RPMI-8226 = system: RPMI-8226

## CCOC(=O)/C(Cl)=C(\C)Nc1nc2c(ccc3ccccc32)s1
MCF7
  GI50: 24.5 µM (inactive)
SK-OV-3
  GI50: > 100 µM (inactive)
HCC 2998
  GI50: 16.4 µM (inactive)
TK-10
  GI50: > 100 µM (inactive)
NCI-H23
  GI50: 31.3 µM (inactive)
HL-60
  GI50: 38.1 µM (inactive)
BT-549
  GI50: 61.7 µM (inactive)
SNB-75
  GI50: 14.6 µM (inactive)
COLO 205
  GI50: 47.9 µM (inactive)
CCRF-CEM
  GI50: 7.87 µM (inactive)
HT-29
  GI50: 45.3 µM (inactive)
OVCAR-8
  GI50: 60.3 µM (inactive)
T47D
  GI50: 13.6 µM (inactive)
M14
  GI50: 33.2 µM (inactive)
SK-MEL-2
  GI50: 26.6 µM (inactive)
PC-3
  GI50: 22.5 µM (inactive)
UACC-62
  GI50: 41.9 µM (inactive)
NCI-H522
  GI50: 9.35 µM (inactive)
MDA-MB-231
  GI50: 60.5 µM (inactive)
OVCAR-5
  GI50: 81.1 µM (inactive)
UO-31
  GI50: > 100 µM (inactive)
HOP-62
  GI50: 37.9 µM (inactive)
HCT-15
  GI50: 26.1 µM
CAKI-1
  GI50: 87.9 µM (inactive)
U-251
  GI50: > 100 µM (inactive)
OVCAR-4
  GI50: 87.7 µM (inactive)
NCI-H460
  GI50: 22.5 µM (inactive)
SF-295
  GI50: > 100 µM (inactive)
K562
  GI50: 17.5 µM (inactive)
SK-MEL-5
  GI50: 31.2 µM (inactive)
Hs-578T
  GI50: 35 µM (inactive)
SK-MEL-28
  GI50: > 100 µM (inactive)
NCI/ADR-RES
  GI50: > 100 µM (inactive)
SN12C
  GI50: 47.6 µM (inactive)
SW-620
  GI50: 36.4 µM (inactive)
A498
  GI50: > 100 µM (inactive)
MOLT-4
  GI50: 7.28 µM (inactive)
ACHN
  GI50: > 100 µM (inactive)
OVCAR-3
  GI50: 46.8 µM (inactive)
EKVX
  GI50: 32.6 µM (inactive)
Malme-3M
  GI50: 15.6 µM (inactive)
KM12
  GI50: 30.6 µM (inactive)
NCI-H226
  GI50: 24.5 µM (inactive)
SF-268
  GI50: 90.2 µM (inactive)
UACC-257
  GI50: 91.8 µM (inactive)
MDA-N
  GI50: 26.3 µM (inactive)
SR
  GI50: 19.5 µM (inactive)
DU-145
  GI50: 20.6 µM (inactive)
IGROV-1
  GI50: > 100 µM (inactive)
HCT-116
  GI50: 25.5 µM (inactive)
SNB-19
  GI50: > 100 µM (inactive)

## C=CCN1C(=O)/C(=C/c2ccc(Cl)cc2)N=C1SC1OC(COC(C)=O)C(OC(C)=O)C(OC(C)=O)C1OC(C)=O (centres undefined)
MCF7
  GI50: 12.7 µM (inactive) and 7.41 µM (inactive)
SK-OV-3
  GI50: > 39.8 µM (inactive) and 27.1 µM (inactive)
A549
  GI50: 14.4 µM (inactive)
TK-10
  GI50: 46.2 µM (inactive) and > 42.6 µM (inactive)
NCI-H23
  GI50: 20 µM (inactive) and 25.1 µM (inactive)
BT-549
  GI50: 31.3 µM (inactive) and 15.7 µM (inactive)
CCRF-CEM
  GI50: 37.2 µM (inactive)
HT-29
  GI50: 35.6 µM (inactive)
OVCAR-8
  GI50: 15.7 µM (inactive) and 8.43 µM (inactive)
T47D
  GI50: 8.51 µM (inactive)
M14
  GI50: 28.1 µM (inactive)
NCI-H522
  GI50: 2.98 µM (inactive) and 3.81 µM (inactive)
SF-539
  GI50: 33 µM (inactive) and 25.3 µM (inactive)
CAKI-1
  GI50: 10.9 µM (inactive) and 9.93 µM (inactive)
SK-MEL-5
  GI50: 26.6 µM (inactive) and 15.8 µM (inactive)
Hs-578T
  GI50: 2.54 µM (inactive)
SK-MEL-28
  GI50: 39.4 µM (inactive) and 56.9 µM (inactive)
MDA-MB-435
  GI50: 14 µM (inactive) and 13.8 µM (inactive)
SN12C
  GI50: 16.5 µM (inactive)
LOX IMVI
  GI50: 22.9 µM (inactive) and 29.9 µM (inactive)
OVCAR-3
  GI50: 11.6 µM (inactive) and 18.5 µM (inactive)
EKVX
  GI50: 24.3 µM (inactive) and 33.4 µM (inactive)
KM12
  GI50: 30.2 µM (inactive) and 22.8 µM (inactive)
SF-268
  GI50: 1.64 µM (inactive)
UACC-257
  GI50: 18.9 µM (inactive) and 12.2 µM (inactive)
MDA-N
  GI50: 25.8 µM (inactive)
DU-145
  GI50: 24 µM (inactive) and 14.6 µM (inactive)
IGROV-1
  GI50: 22.4 µM (inactive) and 33 µM (inactive)
HCT-116
  GI50: 5.02 µM (inactive)
SNB-19
  GI50: 15.8 µM (inactive)
786-0
  GI50: 3.5 µM (inactive)

## CO[C@H]1SC[C@H](OC(C)=O)[C@H](OC(C)=O)[C@H]1OC(C)=O
MCF7
  GI50: > 100 µM (inactive)
A549
  GI50: > 100 µM (inactive)
HCC 2998
  GI50: > 100 µM (inactive)
TK-10
  GI50: > 100 µM (inactive)
NCI-H23
  GI50: > 100 µM (inactive)
HL-60
  GI50: > 100 µM (inactive)
BT-549
  GI50: > 100 µM (inactive)
COLO 205
  GI50: > 100 µM (inactive)
CCRF-CEM
  GI50: > 100 µM (inactive)
HT-29
  GI50: > 100 µM (inactive)
OVCAR-8
  GI50: > 100 µM (inactive)
T47D
  GI50: > 100 µM (inactive)
M14
  GI50: > 100 µM (inactive)
SK-MEL-2
  GI50: > 100 µM (inactive)
UACC-62
  GI50: 93.8 µM (inactive)
NCI-H522
  GI50: > 100 µM (inactive)
MDA-MB-231
  GI50: > 100 µM (inactive)
UO-31
  GI50: > 100 µM (inactive)
HOP-62
  GI50: > 100 µM (inactive)
SF-539
  GI50: > 100 µM (inactive)
HCT-15
  GI50: > 100 µM
CAKI-1
  GI50: > 100 µM (inactive)
U-251
  GI50: > 100 µM (inactive)
OVCAR-4
  GI50: > 100 µM (inactive)
NCI-H460
  GI50: > 100 µM (inactive)
SF-295
  GI50: > 100 µM (inactive)
K562
  GI50: > 100 µM (inactive)
SK-MEL-5
  GI50: > 100 µM (inactive)
Hs-578T
  GI50: > 100 µM (inactive)
SK-MEL-28
  GI50: > 100 µM (inactive)
NCI/ADR-RES
  GI50: > 100 µM (inactive)
MDA-MB-435
  GI50: > 100 µM (inactive)
SN12C
  GI50: > 100 µM (inactive)
SW-620
  GI50: > 100 µM (inactive)
MOLT-4
  GI50: > 100 µM (inactive)
ACHN
  GI50: > 100 µM (inactive)
LOX IMVI
  GI50: > 100 µM (inactive)
OVCAR-3
  GI50: > 100 µM (inactive)
EKVX
  GI50: > 100 µM (inactive)
Malme-3M
  GI50: > 100 µM (inactive)
KM12
  GI50: > 100 µM (inactive)
NCI-H226
  GI50: > 100 µM (inactive)
SF-268
  GI50: > 100 µM (inactive)
UACC-257
  GI50: > 100 µM (inactive)
MDA-N
  GI50: > 100 µM (inactive)
SR
  GI50: > 100 µM (inactive)
DU-145
  GI50: > 100 µM (inactive)
IGROV-1
  GI50: > 100 µM (inactive)
HCT-116
  GI50: > 100 µM (inactive)
SNB-19
  GI50: > 100 µM (inactive)
RPMI-8226
  GI50: > 100 µM (inactive)
786-0
  GI50: > 100 µM (inactive)

— ChEMBL document CHEMBL1201862, “PubChem BioAssay data set” (2004)
